Assay results as given in paper PMC6100082, “Pyridine-Ureas as Potential Anticancer Agents: Synthesis and In Vitro Biological Evaluation” (Molecules : A Journal of Synthetic Chemistry and Natural …, 2018).

Legend:
U251 = assay: NCI one-dose SRB assay (CNS Cancer); type: cell-based, human; conditions: for inhibition at 10 µM: Homo sapiens, U-251, read-out: Percentage growth inhibition (GI%); for Growth Percent: U251, 1.00E-5 Molar
Outline: (§1)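 Single-dose screen at 10^−5 M over roughly 58 human cancer lines under the NCI protocol, with 48 h exposure. Growth estimated by sulforhodamine B protein staining and reported as percentage growth inhibition (GI%).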

SF-268 = assay: NCI one-dose SRB assay (CNS Cancer); type: cell-based, human; conditions: for inhibition at 10 µM: Homo sapiens, read-out: Percentage growth inhibition (GI%); for Growth Percent: SF-268, 1.00E-5 Molar
Outline: as §1

SF-539 = assay: NCI one-dose SRB assay (CNS Cancer); type: cell-based, human; conditions: for inhibition at 10 µM: Homo sapiens, read-out: Percentage growth inhibition (GI%); for Growth Percent: SF-539, 1.00E-5 Molar
Outline: as §1

VEGFR-2 = VEGFR-2 (Homo sapiens, UniProt P35968); assay: VEGFR-2 inhibitory assay (Alpha Screen, anti-phosphotyrosine antibody)
[1] = system: non-tumorigenic human lung fibroblast WI-38 cell line; assay: Cytotoxic activity against non-tumorigenic cells, MTT assay; type: cell-based; conditions: WI-38, MTT
Protocol: The cytotoxic activity of compounds 8b and 8e were evaluated against non-tumorigenic human lung fibroblast WI-38 cell line utilizing the MTT colorimetric assay developed by T. Mosmann (Table 3).
MCF-7 (human breast cancer cell line) and WI-38 (human lung fibroblast cell line), were obtained from American Type Culture Collection (Manassas, VA, USA). The cells were propagated in DMEM and supplemented with 10% heat-inactivated FBS (Hyclone), 10 μg/mL of insulin (Manufacturer, Sigma, St. Louis, MO, USA), and 1% penicillin-streptomycin. MTT assay was utilized to examine the in vitro anti-proliferative activity of the newly prepared ureas following the reported procedures. […] The data presented are the mean of at least three separate experiments.

HT29 = assay: NCI one-dose SRB assay (Colon Cancer); type: cell-based, human; conditions: for Growth Percent: HT29, 1.00E-5 Molar; for inhibition at 10 µM: Homo sapiens, HT-29, read-out: Percentage growth inhibition (GI%)
Protocol: (§2) The structures of all the newly prepared pyridine-ureas 8a–n were submitted to the National Cancer Institute (NCI) Developmental Therapeutic Program. Eight compounds 8b, 8d, 8e, 8i, 8j and 8l–n were selected to be examined for their in vitro growth inhibitory activity. The anticancer assays were carried out according to the protocol of the Drug Evaluation Branch, NCI, Bethesda. The selected pyridine-ureas were tested at one dose primary anticancer assay against a panel of approximately 58 cancer lines (concentration 10^−5 M). The tested human cancer cell lines emerged from nine different cancer subtypes: leukemia, colon, melanoma, ovarian, lung, CNS, renal, breast and prostate cancers. The sulforhodamine B (SRB) protein assay was adopted to estimate the cell viability and growth. The results were reported as mean-graph of the percentage growth of the treated cells, and presented as percentage growth inhibition (GI%) caused by the test compounds (Table 2).
(§3) The anticancer assays were performed in accordance with the protocol of the Drug Evaluation Branch, NCI, Bethesda. A 48 h drug exposure protocol was used and sulforhodamine B (SRB) protein assay was applied to estimate the cell viability and growth, as reported earlier.

KM12 = assay: NCI one-dose SRB assay (Colon Cancer); type: cell-based, human; conditions: for inhibition at 10 µM: Homo sapiens, read-out: Percentage growth inhibition (GI%); for Growth Percent: KM12, 1.00E-5 Molar
Protocol: as §2, §3

SW-620 = assay: NCI one-dose SRB assay (Colon Cancer); type: cell-based, human; conditions: for inhibition at 10 µM: Homo sapiens, read-out: Percentage growth inhibition (GI%); for Growth Percent: SW-620, 1.00E-5 Molar
Protocol: as §2, §3

HCT-116 = assay: NCI one-dose SRB assay (Colon Cancer); type: cell-based, human; conditions: for Growth Percent: HCT-116, 1.00E-5 Molar; for inhibition at 10 µM: Homo sapiens, read-out: Percentage growth inhibition (GI%)
Protocol: as §2, §3

HCT-15 = assay: NCI one-dose SRB assay (Colon Cancer); type: cell-based, human; conditions: for Growth Percent: HCT-15, 1.00E-5 Molar; for inhibition at 10 µM: Homo sapiens, read-out: Percentage growth inhibition (GI%)
Protocol: as §2, §3

HCC-2998 = assay: NCI one-dose SRB assay (Colon Cancer); type: cell-based, human; conditions: for Growth Percent: HCC-2998, 1.00E-5 Molar; for inhibition at 10 µM: Homo sapiens, read-out: Percentage growth inhibition (GI%)
Protocol: as §2, §3

COLO 205 = assay: NCI one-dose SRB assay (Colon Cancer); type: cell-based, human; conditions: for Growth Percent: COLO 205, 1.00E-5 Molar; for inhibition at 10 µM: Homo sapiens, read-out: Percentage growth inhibition (GI%)
Protocol: as §2, §3

VEGFR-2, sequence (P35968 20-1356, species assumed): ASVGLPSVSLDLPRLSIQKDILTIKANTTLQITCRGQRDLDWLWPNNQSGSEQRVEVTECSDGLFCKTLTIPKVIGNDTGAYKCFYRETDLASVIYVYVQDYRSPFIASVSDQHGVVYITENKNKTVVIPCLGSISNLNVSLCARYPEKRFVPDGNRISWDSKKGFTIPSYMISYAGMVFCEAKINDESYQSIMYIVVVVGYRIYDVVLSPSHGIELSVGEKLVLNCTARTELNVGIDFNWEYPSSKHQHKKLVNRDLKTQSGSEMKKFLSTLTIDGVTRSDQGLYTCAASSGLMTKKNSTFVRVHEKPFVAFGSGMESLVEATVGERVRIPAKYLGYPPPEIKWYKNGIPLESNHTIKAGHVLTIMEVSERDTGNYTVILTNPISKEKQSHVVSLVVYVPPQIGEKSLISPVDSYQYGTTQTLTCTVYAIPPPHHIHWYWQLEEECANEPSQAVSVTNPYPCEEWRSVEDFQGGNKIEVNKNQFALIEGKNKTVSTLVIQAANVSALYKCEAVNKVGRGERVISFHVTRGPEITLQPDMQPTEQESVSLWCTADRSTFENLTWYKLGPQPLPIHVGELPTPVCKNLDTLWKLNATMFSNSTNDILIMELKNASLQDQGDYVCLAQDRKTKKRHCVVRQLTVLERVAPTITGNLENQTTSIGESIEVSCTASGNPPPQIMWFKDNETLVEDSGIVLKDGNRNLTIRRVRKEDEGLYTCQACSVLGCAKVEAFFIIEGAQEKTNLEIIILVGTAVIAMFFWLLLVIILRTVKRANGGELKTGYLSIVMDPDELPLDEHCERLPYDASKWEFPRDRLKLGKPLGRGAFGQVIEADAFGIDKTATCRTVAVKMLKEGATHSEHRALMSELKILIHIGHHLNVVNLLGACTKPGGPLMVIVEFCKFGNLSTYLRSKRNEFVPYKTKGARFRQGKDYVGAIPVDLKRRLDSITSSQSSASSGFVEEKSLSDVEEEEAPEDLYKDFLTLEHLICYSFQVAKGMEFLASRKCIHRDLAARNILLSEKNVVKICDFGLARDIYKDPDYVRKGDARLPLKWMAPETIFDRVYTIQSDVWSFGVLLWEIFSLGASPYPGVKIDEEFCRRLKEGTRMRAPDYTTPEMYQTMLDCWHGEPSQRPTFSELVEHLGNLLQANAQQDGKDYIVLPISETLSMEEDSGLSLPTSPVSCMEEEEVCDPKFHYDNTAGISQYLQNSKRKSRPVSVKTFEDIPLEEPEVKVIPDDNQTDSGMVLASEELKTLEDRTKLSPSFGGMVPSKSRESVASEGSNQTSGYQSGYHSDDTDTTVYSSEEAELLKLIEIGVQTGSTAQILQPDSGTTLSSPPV

Molecule | inhibition at 10 µM (U251; U251, 10 μM) | Growth Percent (U251) | inhibition at 10 µM (SF-268; SF-268, 10 μM) | Growth Percent (SF-268) | inhibition at 10 µM (SF-539; SF-539, 10 μM) | Growth Percent (SF-539) | Growth Percent (HT29) | inhibition at 10 µM (HT29; HT29, 10 μM) | inhibition at 10 µM (KM12; KM12, 10 μM) | Growth Percent (KM12) | inhibition at 10 µM (SW-620; SW-620, 10 μM) | Growth Percent (SW-620) | Growth Percent (HCT-116) | inhibition at 10 µM (HCT-116; HCT-116, 10 μM) | Growth Percent (HCT-15) | inhibition at 10 µM (HCT-15; HCT-15, 10 μM) | Growth Percent (HCC-2998) | inhibition at 10 µM (HCC-2998; HCC-2998, 10 μM) | Growth Percent (COLO 205) | inhibition at 10 µM (COLO 205; COLO 205, 10 μM) | also measured
COc1ccc(-c2ccc(NC(=O)Nc3cccc(C(F)(F)F)c3)c(C)n2)cc1 [Compound 8b, 1-(6-(4-Methoxyphenyl)-2-methylpyridin-3-yl)-3-(3-(trifluoromethyl)phenyl) Urea] | 50% | 50.16% | 26% | 74.51% | 20% | 80.84% | 47.65% | 53% | 55% | 45.61% | 19% | 81.01% | 26.93% | 74% | 40.87% | 60% | 81.09% | 19% | 84.52% | 16% | IC50 (VEGFR-2): 5 ± 1.91 µM; IC50 [1]: 91.5 ± 4.53 µM
COc1ccc(-c2ccc(NC(=O)Nc3cccc(C(F)(F)F)c3)c(C)n2)cc1OC [Compound 8i, 1-(6-(3,4-Dimethoxyphenyl)-2-methylpyridin-3-yl)-3-(3-(trifluoromethyl)phenyl) Urea] | 37% | 63.88% | 25% | 75.96% | 23% | 77.24% | 59.96% | 41% | 34% | 66.00% | < 10% | 91.19% | 17.63% | 83% | 48.77% | 52% | 84.39% | 16% | 88.09% | 12% | –
COc1cccc(NC(=O)Nc2ccc(-c3ccc(OC)c(OC)c3)nc2C)c1 [Compound 8m, 1-(6-(3,4-Dimethoxyphenyl)-2-methylpyridin-3-yl)-3-(3-methoxyphenyl) Urea] | < 10% | 94.15% | < 10% | 94.56% | < 10% | 93.97% | 75.95% | 25% | < 10% | 96.43% | < 10% | 101.68% | 78.84% | 22% | 91.11% | < 10% | 97.15% | < 10% | 119.56% | < 10% | –
COc1ccc(-c2ccc(NC(=O)Nc3ccc(Cl)cc3)c(C)n2)cc1 [Compound 8d, 1-(4-Chlorophenyl)-3-(6-(4-methoxyphenyl)-2-methylpyridin-3-yl) Urea] | 24% | 76.51% | < 10% | 96.43% | 16% | 84.16% | 85.13% | 15% | < 10% | 93.09% | 23% | 77.06% | 76.10% | 24% | 85.74% | 15% | 104.24% | < 10% | 102.39% | < 10% | –
COc1ccc(-c2ccc(NC(=O)Nc3ccc(Cl)c(C(F)(F)F)c3)c(C)n2)cc1 [Compound 8e, 1-(4-Chloro-3-(trifluoromethyl)phenyl)-3-(6-(4-methoxyphenyl)-2-methylpyridin-3-yl)urea] | 67% | 33.63% | 27% | 73.73% | 19% | 81.32% | 46.44% | 54% | 63% | 37.36% | 33% | 67.04% | 23.73% | 77% | 37.80% | 63% | 69.17% | 31% | 80.09% | 20% | IC50 (VEGFR-2): 3.93 ± 0.73 µM; IC50 [1]: 83.1 ± 5.21 µM
COc1ccc(NC(=O)Nc2ccc(-c3ccc(OC)c(OC)c3)nc2C)cc1 [Compound 8n, 1-(6-(3,4-Dimethoxyphenyl)-2-methylpyridin-3-yl)-3-(4-methoxyphenyl) Urea] | 78% | 22.08% | 41% | 59.25% | 30% | 70.63% | 68.76% | 32% | 55% | 45.29% | 36% | 64.84% | 49.40% | 51% | 91.77% | < 10% | 83.10% | 17% | 91.95% | < 10% | –
COc1ccc(-c2ccc(NC(=O)Nc3cccc(Cl)c3)c(C)n2)cc1OC [Compound 8j, 1-(3-Chlorophenyl)-3-(6-(3,4-dimethoxyphenyl)-2-methylpyridin-3-yl) Urea] | 17% | 83.31% | 13% | 87.00% | 11% | 89.70% | 74.98% | 26% | 22% | 78.93% | < 10% | 98.24% | 63.31% | 37% | 60.62% | 40% | 88.09% | 12% | 93.06% | < 10% | –
1-(4-Chloro-4-(trifluoromethyl)cyclohexa-2,5-dien-1-yl)-3-(6-(3,4-dimethoxyphenyl)-2-methylpyridin-3-yl)urea [Compound 8l] | – | 55.26% | – | 75.77% | – | 87.81% | 56.20% | – | – | 70.44% | – | 90.92% | 45.30% | – | 49.62% | – | 93.63% | – | 93.52% | – | Percentage growth inhibition (GI%) (U251; U251, 10 μM): 45%; Percentage growth inhibition (GI%) (SF-268; SF-268, 10 μM): 25%; Percentage growth inhibition (GI%) (SF-539; SF-539, 10 μM): 13%; Percentage growth inhibition (GI%) (HT29; HT29, 10 μM): 44%; Percentage growth inhibition (GI%) (KM12; KM12, 10 μM): 30%; Percentage growth inhibition (GI%) (SW-620; SW-620, 10 μM): 10%; Percentage growth inhibition (GI%) (HCT-116; HCT-116, 10 μM): 55%; Percentage growth inhibition (GI%) (HCT-15; HCT-15, 10 μM): 51%; Percentage growth inhibition (GI%) (HCC-2998; HCC-2998, 10 μM): - (Only GI% higher than 10% are shown); Percentage growth inhibition (GI%) (COLO 205; COLO 205, 10 μM): - (Only GI% higher than 10% are shown)
